Residues, ends and D or L forms follow the SMILES beside them.
Biological target: T1, FL_Reg1 (Homo sapiens, UniProt Q5D1E8)
T1 construct: made in house; host or cells: Expi293 cells
T1 sequence (Q5D1E8 1-599): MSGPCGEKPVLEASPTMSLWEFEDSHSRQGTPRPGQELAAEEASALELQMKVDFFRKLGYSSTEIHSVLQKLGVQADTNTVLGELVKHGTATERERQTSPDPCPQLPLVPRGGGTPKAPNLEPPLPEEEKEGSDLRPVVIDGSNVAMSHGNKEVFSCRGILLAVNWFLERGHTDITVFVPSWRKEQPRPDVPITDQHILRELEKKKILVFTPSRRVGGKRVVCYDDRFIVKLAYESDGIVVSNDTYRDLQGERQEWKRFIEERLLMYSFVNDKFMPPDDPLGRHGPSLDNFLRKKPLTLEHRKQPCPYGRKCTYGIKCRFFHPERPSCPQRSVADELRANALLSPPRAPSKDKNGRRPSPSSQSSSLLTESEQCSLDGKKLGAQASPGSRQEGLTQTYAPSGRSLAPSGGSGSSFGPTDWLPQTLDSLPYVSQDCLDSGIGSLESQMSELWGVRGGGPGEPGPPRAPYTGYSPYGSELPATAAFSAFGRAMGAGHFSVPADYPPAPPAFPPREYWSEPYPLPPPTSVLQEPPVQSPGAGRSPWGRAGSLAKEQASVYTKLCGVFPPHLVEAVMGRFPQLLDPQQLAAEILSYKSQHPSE
Experiment: Binding of Regnase-1 and peptide compounds (affinity mass analysis, SEC then LC/MS)
Details: 1 μM FL_Reg1, final compound concentration 1 μM, 23° C. for one hour
Experimental: To a 96 PP plate (Greiner bio-one, 651201) coated with lipidure (Lipidure-CM5206) (NOF CORPORATION, 71S42000001), 2 μL of Tris-Buffer (25 mM Tris-NaOH pH 8.3, 300 mM NaCl, 1 mM DTT, 1 mM EDTA, 1% DMSO) was dispensed, and then 1 mM DMSO sample was added at 20 nL each with a LABCYTE ECHO (registered trademark) acoustic dispensing system. Furthermore, 18 μL of protein prepared at 1 μM FL_Reg1 in advance using Tris-Buffer was added (final compound concentration: 1 μM), and the mixture was incubated in the dark at 23° C. for one hour. Then, to a 96-well, 400 μL, Hydrophilic PVDF 0.45 μm, Long drip (Harvard, 74-5556), 100 μL of P-2, Fine (Bio-Rad, 1504114) which had been swollen in advance was added, and conditioning was performed by centrifuging several times at 2000× G for two minutes using the buffer. Next, 20 μL of the sample after incubation was added to the conditioned 96-well, 400 μL, Hydrophilic PVDF 0.45 μm, Long drip, and SEC treatment was performed by centrifugation at 2000×G for two minutes. To the liquid from SEC, 32 μL of acetonitrile (LC/MS grade, FUJIFILM Wako Pure Chemical Industries, Ltd.) supplemented with 0.1% formic acid (LC/MS grade, 067-04531, FUJIFILM Wako Pure Chemical Industries, Ltd.) was added, and this was centrifuged at 1800×G for five minutes, and the supernatant was used as an analysis sample for LC/MS measurement. Binding to Regnase-1 was detected for all of the peptide compounds, PP1 to PP25.

| SMILES | AS-MS ratio(%) |
| --- | --- |
| CC[C@H](C)[C@@H]1NC(=O)[C@H](CC(N)=O)NC(=O)[C@H](Cc2ccc(O)cc2)NC(=O)[C@H](Cc2c[nH]c3ccccc23)NC(=O)[C@H](CO)NC(=O)[C@H](CC(N)=O)NC(=O)[C@H](CO)NC(=O)[C@H](Cc2ccccc2)NC(=O)[C@H](CC(N)=O)NC(=O)[C@H](C)N(C)C(=O)C[C@@H](C(=O)N2CCCC2)NC(=O)[C@H](Cc2c[nH]c3ccccc23)NC1=O [PP16] (HELM PEPTIDE1{[meA].N.F.S.N.S.W.Y.N.I.W.D.[C1CCN([*:1])C1]}$PEPTIDE1,PEPTIDE1,1:R1-12:R3$$$V2.0) | 17.9 |
| CC[C@H](C)[C@@H]1NC(=O)[C@H](CC(N)=O)NC(=O)[C@H]([C@@H](C)CC)NC(=O)[C@H](Cc2ccc(O)cc2)NC(=O)[C@H](Cc2c[nH]c3ccccc23)NC(=O)[C@H](CO)NC(=O)[C@H](CC(N)=O)NC(=O)[C@H](C)N(C)C(=O)C[C@@H](C(=O)N2CCCC2)NC(=O)[C@H](Cc2c[nH]cn2)NC(=O)CNC(=O)[C@H](Cc2c[nH]c3ccccc23)NC1=O [PP15] (HELM PEPTIDE1{[meA].N.S.W.Y.I.N.I.W.G.H.D.[C1CCN([*:1])C1]}$PEPTIDE1,PEPTIDE1,1:R1-12:R3$$$V2.0) | 66.7 |
| CC[C@H](C)[C@@H]1NC(=O)[C@H](CO)NC(=O)[C@H](CCCNC(=N)N)NC(=O)[C@H](Cc2ccc(O)cc2)NC(=O)[C@H](Cc2ccc(O)cc2)NC(=O)[C@H](Cc2c[nH]c3ccccc23)NC(=O)[C@H](CO)NC(=O)[C@H](CCC(N)=O)NC(=O)[C@H](Cc2ccc(O)cc2)NC(=O)[C@H](CC(N)=O)NC(=O)[C@H](C)N(C)C(=O)C[C@@H](C(=O)N2CCCC2)NC(=O)[C@H](Cc2c[nH]c3ccccc23)NC1=O [PP10] (HELM PEPTIDE1{[meA].N.Y.Q.S.W.Y.Y.R.S.I.W.D.[C1CCN([*:1])C1]}$PEPTIDE1,PEPTIDE1,1:R1-13:R3$$$V2.0) | 3.7 |
| CC[C@H](C)[C@@H]1NC(=O)[C@H](CCCNC(=N)N)NC(=O)[C@H](Cc2ccc(O)cc2)NC(=O)[C@H](Cc2c[nH]c3ccccc23)NC(=O)[C@H](CO)NC(=O)[C@H](CC(N)=O)NC(=O)[C@H](C)N(C)C(=O)C[C@@H](C(=O)N2CCCC2)NC(=O)[C@H](CC(C)C)NC(=O)CNC(=O)[C@H](Cc2c[nH]c3ccccc23)NC1=O [PP22] (HELM PEPTIDE1{[meA].N.S.W.Y.R.I.W.G.L.D.[C1CCN([*:1])C1]}$PEPTIDE1,PEPTIDE1,1:R1-11:R3$$$V2.0) | 14.5 |
| CC[C@H](C)[C@@H]1NC(=O)[C@H](CCCCN)NC(=O)[C@H](Cc2ccc(O)cc2)NC(=O)[C@H](Cc2c[nH]c3ccccc23)NC(=O)[C@H](CO)NC(=O)[C@H](CC(N)=O)NC(=O)[C@H](C)N(C)C(=O)C[C@@H](C(=O)N2CCCC2)NC(=O)[C@H](CC(C)C)NC(=O)CNC(=O)[C@H](Cc2c[nH]c3ccccc23)NC1=O [PP21] (HELM PEPTIDE1{[meA].N.S.W.Y.K.I.W.G.L.D.[C1CCN([*:1])C1]}$PEPTIDE1,PEPTIDE1,1:R1-11:R3$$$V2.0) | 15.1 |

Source: patent US20250018014A1, “METHOD FOR TREATING AND/OR PREVENTING REGNASE-1-RELATED DISEASE” (OSAKA UNIVERSITY, priority 2018, published 2025)
